Earlier results on 5 compounds are cited in patent US10328040B2, “Therapeutic methods” (ARIZONA BOARD OF REGENTS ON BEHALF OF ARIZONA STATE …, priority 2014, dated 2019).

For data set [1], the target named is hRXR. The settings on record: Caco-2 cells.
In data set [2] the test system is hRXR. The note with it: Caco-2 cells. The source holds these as a separate data set.
Data set [3] relates to rat model of Parkinson's disease. The settings on record: low dose.
Data set [4] concerns RXR β. The note with it: CV-1 cell line; read-out: EC50 for RXR β subtype.
The test system of data set [5] is RXR γ. The note with it: CV-1 cell line; read-out: EC50 for RXR γ subtype.
Data set [6] concerns the target hRXRβ (Homo sapiens, UniProt P28702). The settings on record: read-out: EC50 for the hRXRβ isoform.

hRXRβ, sequence (P28702 whole entry, canonical isoform): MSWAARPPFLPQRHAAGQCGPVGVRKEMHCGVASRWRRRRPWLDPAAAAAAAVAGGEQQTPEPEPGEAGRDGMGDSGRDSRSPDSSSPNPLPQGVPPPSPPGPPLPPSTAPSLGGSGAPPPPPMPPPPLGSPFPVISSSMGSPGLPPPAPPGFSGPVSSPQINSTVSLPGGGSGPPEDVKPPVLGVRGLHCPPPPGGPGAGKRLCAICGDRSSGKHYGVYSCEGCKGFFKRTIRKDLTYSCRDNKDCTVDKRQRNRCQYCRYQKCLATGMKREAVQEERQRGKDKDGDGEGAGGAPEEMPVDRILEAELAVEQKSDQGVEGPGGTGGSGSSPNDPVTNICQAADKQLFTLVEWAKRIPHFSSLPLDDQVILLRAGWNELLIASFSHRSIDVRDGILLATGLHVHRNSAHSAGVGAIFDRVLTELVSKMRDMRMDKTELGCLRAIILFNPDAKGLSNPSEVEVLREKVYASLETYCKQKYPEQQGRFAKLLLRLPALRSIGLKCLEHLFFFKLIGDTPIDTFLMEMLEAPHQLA

For the compound `C=C(c1ccc(C(=O)O)c(F)c1)c1cc2c(cc1C)C(C)(C)CCC2(C)C` [Compound 3], the Kd in data set [1] is 12 nM. Moreover, in data set [2], the EC50 is 43 nM.

For `C=C(c1ccc(C(=O)O)cc1)c1cc2c(cc1C)C(C)(C)CCC2(C)C` [Bexarotene], the PD symptoms result in data set [3] is recorded as “marked improvement in the PD symptoms”. Besides, the “dopamine cells and natural behavior” value in data set [3] (rat model of PD) was “restored dopamine cells and natural behavior”. Turning to `C=C(c1ccc(C(=O)O)cn1)c1cc2c(cc1C)C(C)(C)CCC2(C)C` [Compound 1], the EC50 in data set [4] is […]; in data set [5], […]. As for `Cc1cc2c(cc1C1(c3ccc(C(=O)O)cn3)CC1)C(C)(C)CCC2(C)C` [LGD100268], the EC50 in data set [4] was […]; in data set [5], […]. Regarding `Cc1cc2c(cc1-c1cc(/C=C/C(=O)O)ccc1O)C(C)(C)CCC2(C)C` [CD3254, (E)-3-(3-(1,2,3,4-tetrahydro-1,1,4,4,6-pentamethylnaphthylen-7-yl)-4-hydroxyphenyl)acrylic Acid], the 50% effective concentration (EC50) in data set [6] was around 10 nM.

One may read the Kd as a measure of binding affinity in units of concentration. As usually defined, the EC50 is the concentration that produces a half-maximal response.
